Experimental data as given in patent US6750228B1, “Aromatic sulfone hydroxamic acid metalloprotease inhibitor” (priority 1997, dated 2004).
Structures can show the parent of a compound that is named as a salt. Where two headings read alike, the source gives them in different places.

Key:
Assay in all cases: biochemical
MMP-13 = target: T1, MMP-13 (Homo sapiens, UniProt P45452); settings: recombinant human MMP-13, MCA peptide substrate 4 μM, pH 7.5, room temperature; read-out: MMP-13 IC50
T1 construct: made in house; host or cells: baculovirus / insect cells
In short: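 APMA- or trypsin-activated enzymes were preincubated with inhibitor for 5 min at room temperature, then the fluorogenic substrate MCA-Pro-Leu-Gly-Leu-Dpa-Ala-Arg-NH2 was added to a final 4 μM.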

MMP-2 = target: T2, MMP-2 (Homo sapiens, UniProt P08253); settings: recombinant human MMP-2, MCA peptide substrate 4 μM, pH 7.5, room temperature; read-out: MMP-2 IC50
T2 construct: made in house; provided by Dr. Gregory Goldberg, Washington University
T2 sequence (P08253 110-660): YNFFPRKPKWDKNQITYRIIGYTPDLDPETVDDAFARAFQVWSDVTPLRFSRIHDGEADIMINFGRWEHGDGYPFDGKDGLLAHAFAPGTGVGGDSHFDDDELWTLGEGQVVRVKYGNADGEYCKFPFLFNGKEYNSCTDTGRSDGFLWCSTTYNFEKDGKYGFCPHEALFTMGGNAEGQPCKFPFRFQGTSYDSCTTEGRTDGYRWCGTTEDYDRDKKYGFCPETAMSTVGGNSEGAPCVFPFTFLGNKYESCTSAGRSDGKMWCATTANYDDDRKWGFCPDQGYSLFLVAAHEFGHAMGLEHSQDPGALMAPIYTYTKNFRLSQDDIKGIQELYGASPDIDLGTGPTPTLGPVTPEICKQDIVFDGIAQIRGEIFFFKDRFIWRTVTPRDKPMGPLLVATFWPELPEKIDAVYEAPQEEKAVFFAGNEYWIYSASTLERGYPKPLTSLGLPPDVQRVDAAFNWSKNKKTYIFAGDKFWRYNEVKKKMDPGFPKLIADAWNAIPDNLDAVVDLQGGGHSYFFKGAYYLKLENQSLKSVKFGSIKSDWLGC
In short: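 Assay buffer 100 mM Tris-HCl, 100 mM NaCl, 10 mM CaCl2, pH 7.5. Activated MMP + inhibitor, 5 min RT; then methoxycoumarin peptide substrate, 4 μM final. Readout fluorescence; IC50 calculated.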

MMP-1 = target: T3, MMP-1 (Homo sapiens, UniProt P03956); settings: read-out: MMP-1 IC50
T3 construct: made in house; host or cells: transfected HT-1080 cells (provided by Dr. Harold Welgus, Washington University)
T3 sequence (P03956 100-469): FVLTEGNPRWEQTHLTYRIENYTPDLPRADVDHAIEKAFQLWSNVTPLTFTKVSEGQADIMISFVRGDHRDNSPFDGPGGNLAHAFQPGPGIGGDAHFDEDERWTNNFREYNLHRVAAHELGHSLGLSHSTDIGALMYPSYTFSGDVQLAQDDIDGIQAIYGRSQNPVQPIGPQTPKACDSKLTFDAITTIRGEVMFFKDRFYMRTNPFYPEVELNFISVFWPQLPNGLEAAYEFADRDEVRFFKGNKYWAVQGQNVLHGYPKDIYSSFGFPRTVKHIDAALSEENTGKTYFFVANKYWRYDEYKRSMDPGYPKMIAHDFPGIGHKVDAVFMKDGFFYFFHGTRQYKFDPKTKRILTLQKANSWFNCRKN
In short: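 Substrate MCA-PLGL-Dpa-AR-NH2 at 4 μM final; pH 7.5 Tris/NaCl/CaCl2 buffer with 0.05% polyethyleneglycol lauryl ether, 1% DMSO, room temperature. MMP-1 was expressed in transfected HT-1080 cells and APMA-activated.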

[1] = recombinant human MMP-1, MCA peptide substrate 4 μM, pH 7.5, room temperature

IC50 (MMP-13)	IC50 (MMP-2)	IC50 (MMP-1; [1])	Compound	IC50 (MMP-1)
11.3 nM	160 nM	> 10000 nM	CCCCCOc1ccc(COC2CCN(c3ccc(S(=O)(=O)C4(C(=O)NO)CCOCC4)cc3)CC2)cc1 [Example 477]	–
8 nM	27 nM	–	O=C(Nc1ccccc1)OC1CCN(c2ccc(S(=O)(=O)C3(C(=O)NO)CCOCC3)cc2)CC1 [Example 515]	> 10000 nM
7.7 nM	90 nM	> 10000 nM	O=C(NO)C1(S(=O)(=O)c2ccc(N3CCN(S(=O)(=O)c4cccc(C(F)(F)F)c4)CC3)cc2)CCOCC1 [Example 676]	–
11.3 nM	420 nM	> 10000 nM	O=C(Nc1ccccc1)C1CCN(c2ccc(S(=O)(=O)C3(C(=O)NO)CCN(C4CC4)CC3)cc2)CC1 [Example 243, 1-Cyclopropyl-N-hydroxy-4-[[4-[4-[(phenylamino)carbonyl]-1-piperidinyl]phenyl]sulfonyl]-4-piperidinecarboxamide, Monohydrochloride]	–
0.5 nM	0.3 nM	> 10000 nM	O=C(CNCCO)N1CCC(C(=O)NO)(S(=O)(=O)c2ccc(Oc3ccc(C(F)(F)F)cc3)cc2)CC1 [Example 321]	–
25.4 nM	140 nM	> 10000 nM	CCNCc1ccc(COC2CCN(c3ccc(S(=O)(=O)C4(C(=O)NO)CCOCC4)cc3)CC2)cc1 [Example 476]	–
13 nM	88 nM	6000 nM	O=C(NO)C1(S(=O)(=O)c2ccc(N3CCN(S(=O)(=O)c4ccccc4C(F)(F)F)CC3)cc2)CCOCC1 [Example 675]	–
3.7 nM	140 nM	> 10000 nM	CC(C)OCc1ccc(COC2CCN(c3ccc(S(=O)(=O)C4(C(=O)NO)CCOCC4)cc3)CC2)cc1 [Example 554]	–
10.7 nM	110 nM	> 10000 nM	O=C(NO)C1(S(=O)(=O)c2ccc(N3CCC(OCc4cccc(F)c4)CC3)cc2)CCOCC1 [Example 575]	–
13.7 nM	60 nM	> 10000 nM	Cc1cccc(COC2CCC(Oc3ccc(S(=O)(=O)C4(C(=O)NO)CCOCC4)cc3)C2)c1 (stereo not drawn) [Example 651]	–
20 nM	210 nM	> 10000 nM	C=CCC(=O)C1CCN(c2ccc(S(=O)(=O)C3(C(=O)NO)CCOCC3)cc2)CC1 [Example 798]	–
1.5 nM	1.5 nM	9400 nM	COc1cc(OC)cc(OC2CCN(c3ccc(S(=O)(=O)C4(C(=O)NO)CCOCC4)cc3)CC2)c1 [Example 639]	–
7.7 nM	120 nM	> 10000 nM	O=C(NO)C1(S(=O)(=O)c2ccc(N3CCC(Oc4cc(F)cc(F)c4)CC3)cc2)CCOCC1 [Example 545]	–
50 nM	285 nM	> 10000 nM	CCCOC1CCN(c2ccc(S(=O)(=O)C3(C(=O)NO)CCOCC3)cc2)CC1 [Example 168]	–
2 nM	22.7 nM	> 10000 nM	O=C(NO)C1(S(=O)(=O)c2ccc(N3CCN(c4ccc(OC(F)(F)F)cc4)CC3)cc2)CCOCC1 [Example 695]	–
0.2 nM	< 0.1 nM	4500 nM	O=C(NO)C1(S(=O)(=O)c2ccc(Oc3ccc(OC(F)(F)F)cc3)cc2)CCN(CCCN2CCOCC2)CC1 [Example 264, N-Hydroxy-1-[3-(4-morpholinyl)propyl]-4-[[4-[4-(trifluoromethoxy)phenoxy]phenyl]sulfonyl]-4-piperidinecarboxamide Dihydrochloride]	–
30 nM	9000 nM	> 10000 nM	CCCN(CC1CC1)C(=O)C1CCN(c2ccc(S(=O)(=O)C3(C(=O)NO)CCOCC3)cc2)CC1 [Example 35]	–
9 nM	600 nM	> 10000 nM	CC(C)CCOCc1ccc(COC2CCN(c3ccc(S(=O)(=O)C4(C(=O)NO)CCOCC4)cc3)CC2)cc1 [Example 600]	–
1.5 nM	0.9 nM	> 10000 nM	COCCN1CCC(C(=O)NO)(S(=O)(=O)c2ccc(Oc3ccc(-n4cncn4)cc3)cc2)CC1 [Example 262, N-Hydroxy-1-(2-methoxyethyl)-4-[[4-[4-(1H-1,2,4-triazol-1-yl)phenoxy]phenyl]sulfonyl]-4-piperidinecarboxamide Trihydrochloride]	–
8 nM	4.2 nM	> 10000 nM	Cc1cccc(OC2CCN(c3ccc(S(=O)(=O)C4(C(=O)NO)CCOCC4)cc3)CC2)c1 [Example 485]	–
10 nM	140 nM	> 10000 nM	COc1cccc(S(=O)(=O)N2CCN(c3ccc(S(=O)(=O)C4(C(=O)NO)CCOCC4)cc3)CC2)c1 [Example 696]	–
1.7 nM	0.8 nM	> 10000 nM	O=C(CCCCN1CCNCC1)N1CCC(C(=O)NO)(S(=O)(=O)c2ccc(Oc3ccc(C(F)(F)F)cc3)cc2)CC1 [Example 343]	–
4 nM	200 nM	> 10000 nM	CCOCc1ccc(COC2CCN(c3ccc(S(=O)(=O)C4(C(=O)NO)CCOCC4)cc3)CC2)cc1 [Example 472]	–
20.6 nM	170 nM	> 10000 nM	O=C(NO)C1(S(=O)(=O)c2ccc(N3CCC(OCc4ccc(F)c(F)c4)CC3)cc2)CCOCC1 [Example 179]	–
8800 nM	> 10000 nM	> 10000 nM	COC[C@@H]1CCN(c2ccc(S(=O)(=O)C3(C(=O)NO)CCOCC3)cc2)C1 [Example 529]	–
11.5 nM	500 nM	> 10000 nM	O=C(Nc1ccc(F)cc1)C1CCN(c2ccc(S(=O)(=O)C3(C(=O)NO)CCOCC3)cc2)CC1 [Example 75]	–
11.4 nM	350 nM	> 10000 nM	CCCCOc1ccc(NC(=O)OC2CCN(c3ccc(S(=O)(=O)C4(C(=O)NO)CCOCC4)cc3)CC2)cc1 [Example 518]	–
0.8 nM	12 nM	> 10000 nM	N#Cc1ccc(OC2CCN(c3ccc(S(=O)(=O)C4(C(=O)NO)CCOCC4)cc3)CC2)cc1 [Example 469]	–

Compound	IC50 (MMP-13)	IC50 (MMP-2)	IC50 (MMP-1; [1])	IC50 (MMP-1)
CC1CC(C)CN(C(=O)C2CCN(c3ccc(S(=O)(=O)C4(C(=O)NO)CCN(C(=O)CNCc5cccs5)CC4)cc3)CC2)C1 (stereo not drawn) [Example 282]	14.8 nM	9000 nM	> 10000 nM	–
COc1ccc(C(=O)C2CCN(c3ccc(S(=O)(=O)C4(C(=O)NO)CCN(c5ccncc5)CC4)cc3)CC2)cc1 [Example 438]	1.4 nM	160 nM	> 10000 nM	–
O=C(c1ccc(Cl)c(Cl)c1)C1CCN(c2ccc(S(=O)(=O)C3(C(=O)NO)CCOCC3)cc2)CC1 [Example 846]	4.5 nM	186 nM	> 10000 nM	–
COc1ccc(C(=O)C2CCN(c3ccc(S(=O)(=O)C4(C(=O)NO)CCOCC4)cc3)CC2)cc1 [Example 80]	4.1 nM	562 nM	> 10000 nM	–
C=Cc1cccc(C(=O)C2CCN(c3ccc(S(=O)(=O)C4(C(=O)NO)CCOCC4)cc3)CC2)c1 [Example 786]	3.7 nM	700 nM	> 10000 nM	–
O=C(Nc1c(F)cccc1F)N1CCC(C(=O)NO)(S(=O)(=O)c2ccc(Oc3ccc(OC(F)(F)F)cc3)cc2)CC1 [Example 361]	0.5 nM	< 0.1 nM	5000 nM	–
COc1cc2c(cc1OC)CN(c1ccc(S(=O)(=O)C3(C(=O)NO)CCN(C4CC4)CC3)cc1)CC2 [Example 464]	120 nM	400 nM	> 10000 nM	–
COCCN1CCC(C(=O)NO)(S(=O)(=O)c2ccc(N3CCC(OCc4ccc(F)cc4)CC3)cc2)CC1 [Example 448]	2.4 nM	540 nM	> 10000 nM	–
O=C(c1ccc2c(c1)OCCO2)C1CCN(c2ccc(S(=O)(=O)C3(C(=O)NO)CCOCC3)cc2)CC1 [Example 797]	4 nM	175 nM	–	> 10000 nM
